Series [1] concerns HeLa cells. Nature of the series: Assay 1 cell proliferation measurement (CTG, 72 h), HeLa. It is filed as cell-based, human. Conditions: Homo sapiens, HeLa; Assay 1, 72 h, Cell Titer Glo; read-out: HeLa IC50 [nM] (Cervical cancer). A digest of the protocol: (§1)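 CellTiter-Glo luminescence was read at treatment start (0 h plate) and after 72 h compound exposure at 37 °C. Doses were 2.5-fold steps, ten concentrations, top 100 nM final, 0.3% DMSO. Growth inhibition was scaled between 0 h and vehicle values, and IC50 was obtained by 4-parameter fitting.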

Series [2] has as its system SK-MEL-3 cells. Nature of the series: Assay 1 cell proliferation measurement (CTG, 72 h), SK-MEL-3. In kind it is cell-based, human. Conditions: Homo sapiens, SK-MEL3; Assay 1, 72 h, Cell Titer Glo; read-out: SK-MEL-3 IC50 [nM] (melanoma). A digest of the protocol:
as §1
(Cellular ATP, detected with luciferase, serves as a proxy for viable cell number.)

In series [3] the target is human full length PDE3A (Homo sapiens (Human), UniProt Q14432). Kind of series: Assay 4 PDE3A enzyme inhibition (3H-cAMP SPA). In kind it is biochemical. Conditions: Sf9 cell extract. The essentials:
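In this SPA format, the 60-min room-temperature reaction used 0.025 μCi [8-3H]cAMP and diluted full-length PDE3A from Sf9 cells. Percentage activity was plotted against log compound concentration to derive IC50.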

Series [4] addresses human full length PDE3B (Homo sapiens (Human), UniProt Q13370). Nature of the series: Assay 5 PDE3B enzyme inhibition (3H-cAMP SPA). In kind it is biochemical. As to conditions: Sf9 cell extract. The essentials: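 Sf9 cell extract expressing human full-length PDE3B, diluted for linear kinetics (<70% substrate use), in 50 mM Tris/HCl pH 7.5, 8.3 mM MgCl2, 1.7 mM EDTA. [8-3H]cAMP substrate, 60 min at room temperature; stopped with yttrium SPA beads, scintillation counting. IC50 from sigmoidal activity vs log concentration curves.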

Series [5] can be described thus: Assay 6 in vitro metabolic stability in cryopreserved human hepatocytes (CL, Fmax). It is filed as in vitro ADME. Conditions: 1 μM test compound; for Clblood: hepatic in vivo blood clearance calculated (well-stirred) from half-life in cryopreserved human hepatocytes; for Fmax: maximal oral bioavailability calculated from half-life in cryopreserved human hepatocytes. How it is done: Assay 6 Method for Human Cryo Hepatocytes:
Investigation of In Vitro Metabolic Stability in Cryopreserved Human Hepatocytes (Including Calculation of Hepatic In Vivo Blood Clearance (CL) and Maximal Oral Bioavailability (Fmax))
Cryopreserved Hepatocytes (e.g. purchased from Celsis InVitroTechnologies) were briefly thawed, washed with 45 mL pre-warmed in in vitro GRO HT medium and centrifuged for 5 min at 50×g. The cell pellet was resuspended in 5 ml of Krebs-Henseleit […] (KHB). Cell viability was determined by trypan blue exclusion.
For the metabolic stability assay liver cells were distributed in WME containing 5% FCS to glass vials at a density of 1.0×10^6 vital cells/ml. The test compound was added to a final concentration of 1 μM. During incubation, the hepatocyte suspensions were continuously shaken at 580 rpm and aliquots were taken at 2, 8, 16, 30, 45 and 90 min, to which equal volumes of cold methanol were immediately added. Samples were frozen at −20° C. over night, after subsequently centrifuged for 15 minutes at 3000 rpm and the supernatant was analyzed with an Agilent 1290 HPLC-system with LCMS/MS detection.
The half-life of a test compound was determined from the concentration-time plot. From the half-life the intrinsic clearances were calculated. Together with the additional parameters liver blood flow, amount of liver cells in vivo and in vitro. The hepatic in vivo blood clearance (CL) and the maximal oral bioavailability (Fmax) was calculated.

human full length PDE3B, sequence (Q13370 whole entry): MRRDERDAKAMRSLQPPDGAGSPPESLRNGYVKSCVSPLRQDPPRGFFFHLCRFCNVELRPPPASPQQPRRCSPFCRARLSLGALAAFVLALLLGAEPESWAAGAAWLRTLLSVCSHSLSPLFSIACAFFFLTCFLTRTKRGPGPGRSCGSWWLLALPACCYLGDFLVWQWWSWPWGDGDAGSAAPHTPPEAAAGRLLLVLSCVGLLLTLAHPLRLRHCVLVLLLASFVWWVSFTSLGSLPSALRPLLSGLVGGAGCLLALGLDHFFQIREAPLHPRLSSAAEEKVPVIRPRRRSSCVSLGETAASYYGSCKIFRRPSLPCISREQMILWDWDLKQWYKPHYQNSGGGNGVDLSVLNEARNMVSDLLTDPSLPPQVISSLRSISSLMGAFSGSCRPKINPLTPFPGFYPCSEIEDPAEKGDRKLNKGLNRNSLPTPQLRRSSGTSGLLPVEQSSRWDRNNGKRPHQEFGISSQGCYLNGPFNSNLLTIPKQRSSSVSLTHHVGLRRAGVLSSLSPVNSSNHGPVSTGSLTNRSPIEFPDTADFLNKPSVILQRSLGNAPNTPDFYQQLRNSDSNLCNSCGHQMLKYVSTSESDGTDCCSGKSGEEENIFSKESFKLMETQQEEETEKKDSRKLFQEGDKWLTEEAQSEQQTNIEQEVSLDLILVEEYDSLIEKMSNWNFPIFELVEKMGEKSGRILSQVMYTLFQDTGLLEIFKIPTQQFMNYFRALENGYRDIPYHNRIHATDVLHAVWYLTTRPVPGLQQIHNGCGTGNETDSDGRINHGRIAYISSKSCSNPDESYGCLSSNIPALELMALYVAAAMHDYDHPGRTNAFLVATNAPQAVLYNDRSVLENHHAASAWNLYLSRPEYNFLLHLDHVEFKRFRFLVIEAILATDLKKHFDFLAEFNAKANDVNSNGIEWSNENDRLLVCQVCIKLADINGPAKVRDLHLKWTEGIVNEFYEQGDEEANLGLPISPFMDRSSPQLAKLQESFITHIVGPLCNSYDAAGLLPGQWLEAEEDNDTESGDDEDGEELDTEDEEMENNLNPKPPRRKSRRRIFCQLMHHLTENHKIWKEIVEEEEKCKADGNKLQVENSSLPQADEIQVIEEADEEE
human full length PDE3A, sequence (Q14432 whole entry): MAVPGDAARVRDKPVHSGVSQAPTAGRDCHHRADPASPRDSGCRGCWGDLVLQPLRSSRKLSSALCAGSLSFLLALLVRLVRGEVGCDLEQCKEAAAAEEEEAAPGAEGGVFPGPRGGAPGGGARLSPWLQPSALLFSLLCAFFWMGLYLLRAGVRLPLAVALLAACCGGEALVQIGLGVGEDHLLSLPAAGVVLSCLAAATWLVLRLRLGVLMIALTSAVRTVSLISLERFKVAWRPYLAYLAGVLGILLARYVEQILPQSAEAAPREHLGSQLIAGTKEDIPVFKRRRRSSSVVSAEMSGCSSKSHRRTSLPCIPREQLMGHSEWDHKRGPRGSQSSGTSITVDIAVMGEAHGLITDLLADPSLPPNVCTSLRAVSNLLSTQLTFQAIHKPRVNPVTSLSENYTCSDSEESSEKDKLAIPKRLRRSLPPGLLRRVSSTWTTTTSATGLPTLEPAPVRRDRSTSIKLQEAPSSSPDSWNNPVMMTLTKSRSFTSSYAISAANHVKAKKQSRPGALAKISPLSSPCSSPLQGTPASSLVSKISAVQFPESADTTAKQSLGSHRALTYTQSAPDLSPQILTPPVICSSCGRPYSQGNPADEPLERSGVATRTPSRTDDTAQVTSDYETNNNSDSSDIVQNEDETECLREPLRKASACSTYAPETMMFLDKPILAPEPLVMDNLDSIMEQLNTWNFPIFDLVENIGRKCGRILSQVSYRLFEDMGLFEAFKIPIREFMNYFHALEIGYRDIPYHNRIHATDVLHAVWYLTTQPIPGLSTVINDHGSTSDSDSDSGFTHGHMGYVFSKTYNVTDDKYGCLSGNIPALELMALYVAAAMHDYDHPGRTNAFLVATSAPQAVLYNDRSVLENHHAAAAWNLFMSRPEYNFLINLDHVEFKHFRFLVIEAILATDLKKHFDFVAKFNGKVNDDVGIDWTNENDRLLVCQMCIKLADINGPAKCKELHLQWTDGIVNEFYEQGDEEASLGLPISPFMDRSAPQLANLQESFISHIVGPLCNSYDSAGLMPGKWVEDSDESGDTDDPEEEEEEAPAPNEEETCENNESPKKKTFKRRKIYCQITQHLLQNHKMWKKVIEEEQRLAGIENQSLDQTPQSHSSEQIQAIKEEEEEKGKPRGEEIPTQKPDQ

Consider `Cc1cc(F)ccc1-c1ccc(C2=NNC(=O)OC2)cc1F` [Example 162, 5-(2,4′-Difluoro-2′-methyl[1,1′-biphenyl]-4-yl)-3,6-dihydro-2H-1,3,4-oxadiazin-2-one], for which the IC50 (in general, the concentration needed to halve the response being measured) is 4 nM in series [1], 7 nM in series [2], 0.21 µM in series [3] and 0.12 µM in series [4]. In series [5], the Clblood was 10.3 mL/min/kg. Besides, the Fmax in series [5] is on record as 53%.

On to `O=C1NN=C(c2ccc(-c3cnn(C(F)F)c3)c(C(F)F)c2)CO1` [Example 195, 5-{3-(Difluoromethyl)-4-[1-(difluoromethyl)-1H-pyrazol-4-yl]phenyl}-3,6-dihydro-2H-1,3,4-oxadiazin-2-one], for which the IC50 in series [1] amounted to 2 nM; in series [2], 5 nM; in series [3] it was 0.058 µM; in series [4], 0.077 µM. For the same compound, the Clblood in series [5] was less than 0.17 mL/min/kg. Moreover, the Fmax in series [5] is reported as 100%.

As to `CC(C)(C)Nc1ccc(C2=NNC(=O)OC2)cc1C(F)(F)F` [Example 224, 5-[4-(tert-Butylamino)-3-(trifluoromethyl)phenyl]-3,6-dihydro-2H-1,3,4-oxadiazin-2-one], the half-inhibitory concentration (IC50) in series [1] is 2 nM; in series [2], 3 nM; in series [3], 0.165 µM; in series [4], 0.2 µM. The Clblood in series [5] was 5.83 mL/min/kg. Further, the Fmax in series [5] is listed as 74%.

`NC(=O)CNc1ccc(C2=NNC(=O)OC2)cc1C(F)(F)F` [Example 256, N^2-[4-(2-Oxo-3,6-dihydro-2H-1,3,4-oxadiazin-5-yl)-2-(trifluoromethyl)phenyl]glycinamide]: the IC50 in series [1] was 37 nM; in series [2] it was 63 nM; in series [3], 0.24 µM; in series [4], 0.48 µM. Besides, the Clblood in series [5] was 1.2 mL/min/kg. For the same compound, the Fmax in series [5] was 95%.

As to `COC/C=C/c1ccc(C2=NNC(=O)OC2)cc1C(F)(F)F` [Example 140, 5-{4-[3-Methoxyprop-1-en-1-yl]-3-(trifluoromethyl)phenyl}-3,6-dihydro-2H-1,3,4-oxadiazin-2-one], the IC50 in series [1] amounted to 1 nM; in series [2], 1 nM; in series [3] it was 0.058 µM; in series [4], 0.08 µM. Besides, the Clblood in series [5] was 8.5 mL/min/kg. In series [5], the Fmax is reported as 61%.

As for `CCC(CNc1ccc(C2=NNC(=O)OC2)cc1C(F)(F)F)OC` (centres unmarked) [Example 281, 5-{4-[(2-methoxybutyl)amino]-3-(trifluoromethyl)phenyl}-3,6-dihydro-2H-1,3,4-oxadiazin-2-one], in series [1], the IC50 came out at 12 nM. In series [5], the Clblood was 14.2 mL/min/kg and the Fmax is listed as 35%.

On to `CC(C)c1ccc(C2=NNC(=O)OC2)cc1C(F)(F)F` [Example 270, 5-[4-(Propan-2-yl)-3-(trifluoromethyl)phenyl]-3,6-dihydro-2H-1,3,4-oxadiazin-2-one], for which the IC50 came out at 9 nM in series [1], 15 nM in series [2], 0.055 µM in series [3] and 0.17 µM in series [4]. Besides, in series [5], the Clblood is less than 0.17 mL/min/kg. In addition, the Fmax in series [5] is given as 100%.

With `CC1OC(=O)NN=C1c1cc(F)c(N2CCOCC2)c(F)c1` (racemic) [Example 17, (rac)-5-[3,5-Difluoro-4-(morpholin-4-yl)phenyl]-6-methyl-3,6-dihydro-2H-1,3,4-oxadiazin-2-one], the 50% inhibitory concentration (IC50) in series [1] came to 7 nM; in series [2], 17 nM; in series [3] it was 0.025 µM; in series [4] it was 0.017 µM.

Turning to `CCCNc1ccc(C2=NNC(=O)OC2)cc1C(F)(F)F` [Example 69, 5-[4-(Propylamino)-3-(trifluoromethyl)phenyl]-3,6-dihydro-2H-1,3,4-oxadiazin-2-one], the IC50 in series [1] was 1 nM; in series [2] it was 1 nM; in series [3] it was 0.031 µM; in series [4], 0.047 µM.

`O=C1NN=C(c2ccc(C3CCCOC3)c(C(F)(F)F)c2)CO1` (racemic) [Example 271, (rac)-5-{4-[Oxan-3-yl]-3-(trifluoromethyl)phenyl}-3,6-dihydro-2H-1,3,4-oxadiazin-2-one]: the IC50 in series [1] was 1 nM; in series [2] it was 3 nM; in series [3], 0.027 µM; in series [4], 0.025 µM.

Regarding `C[C@@H]1OC(=O)NN=C1c1ccc(-c2ccc(F)c(F)c2F)c(C(F)(F)F)c1` [Example 170, (6S)-6-Methyl-5-[2′,3′,4′-trifluoro-2-(trifluoromethyl)[1,1′-biphenyl]-4-yl]-3,6-dihydro-2H-1,3,4-oxadiazin-2-one], the IC50 in series [1] came to 27 nM; in series [2] it was 40 nM; in series [3], 0.19 µM; in series [4] it was 0.18 µM.

Turning to `O=C1NN=C(c2ccc(-c3ccc(F)nc3)c(F)c2)CO1` [Example 77, 5-[3-Fluoro-4-(6-fluoropyridin-3-yl)phenyl]-3,6-dihydro-2H-1,3,4-oxadiazin-2-one], the IC50 in series [1] was found to be 8 nM; in series [2], 16 nM; in series [3], 0.033 µM; in series [4] it was 0.083 µM.

On to `O=C1NN=C(c2ccc([C@H]3CC[C@H](O)CC3)c(C(F)(F)F)c2)CO1` [Example 272, (trans)-5-{4-[4-hydroxycyclohexyl]-3-(trifluoromethyl)phenyl}-3,6-dihydro-2H-1,3,4-oxadiazin-2-one], for which the IC50 was 1 nM in series [1], 1 nM in series [2], 0.019 µM in series [3] and 0.01 µM in series [4].

As to `Nc1cc(-c2ccc(C3=NNC(=O)OC3)cc2F)ccn1` [Example 90, 5-[4-(2-Aminopyridin-4-yl)-3-fluorophenyl]-3,6-dihydro-2H-1,3,4-oxadiazin-2-one], the IC50 in series [1] is 16 nM; in series [2], 30 nM; in series [3] it was 0.043 µM; in series [4] it was 0.1 µM.

`O=C1NN=C(c2ccc(-c3cccc(F)c3)c(C(F)(F)F)c2)CO1` [Example 138, 5-[3′-Fluoro-2-(trifluoromethyl)biphenyl-4-yl]-3,6-dihydro-2H-1,3,4-oxadiazin-2-one]: the IC50 in series [1] stood at 7 nM; in series [2], 19 nM; in series [3], 0.15 µM; in series [4], 0.2 µM.

Take `Nc1ccc(-c2ccc(C3=NNC(=O)OC3)cc2C(F)(F)F)cn1` [Example 40, 5-[4-(6-Aminopyridin-3-yl)-3-(trifluoromethyl)phenyl]-3,6-dihydro-2H-1,3,4-oxadiazin-2-one]: the IC50 in series [1] stood at 5 nM; in series [2], 7 nM; in series [3] it was 0.042 µM; in series [4] it was 0.039 µM.

On to `CN1CC=C(c2ccc(C3=NNC(=O)OC3)cc2C(F)(F)F)CC1` [Example 133, 5-[4-(1-Methyl-1,2,3,6-tetrahydropyridin-4-yl)-3-(trifluoromethyl)phenyl]-3,6-dihydro-2H-1,3,4-oxadiazin-2-one], for which the 50% inhibitory concentration (IC50) in series [1] was 32 nM; in series [2], 51 nM; in series [3], more than 1 µM; in series [4], more than 1 µM.

Turning to `Cc1cc(-c2ccc(C3=NNC(=O)OC3)cc2F)ccn1` [Example 79, 5-[3-Fluoro-4-(2-methylpyridin-4-yl)phenyl]-3,6-dihydro-2H-1,3,4-oxadiazin-2-one], the IC50 in series [1] was found to be 12 nM; in series [2], 25 nM; in series [3], 0.029 µM; in series [4], 0.071 µM.

The record behind these values is patent US11427553B2, “Dihydrooxadiazinones” (Bayer Aktiengesellschaft, priority 2017, dated 2022).
